MIC data for ten compounds are collected here from patent EP2311457A1, “Pharmaceutical compositions for treating infections with drug resistant mycobacteria” (priority 2009, dated 2011).

Converted amounts (≈) assume the structure as drawn.

The assay deals with Mtb 09457/06 XDR. Description: Drug susceptibility testing, radiometric MIC determination (BACTEC 460TB). The note with it: Mycobacterium tuberculosis, read-out: minimal inhibitory concentrations.
As to `c1ccc(C(=NNc2ccc3ccccc3n2)c2ccccn2)cc1` [PH22-15, 2-benzoylpyridine-2'-quinolylhydrazone], the MIC was 0.25 µg/mL (≈ 0.771 µM).

On to `Cc1ccc(C=NNc2ccc3ccccc3n2)nc1` [PH22-14, 5-methylpyridine-2-aldehyde-2'-quinolylhydrazone], for which the MIC worked out at 0.5 µg/mL (≈ 1.91 µM). Regarding `Cc1ccc(C=NNc2nncc3ccccc23)nc1` [PH22-16, 5-methyl-pyridine-2-aldehyde-1'-phthalazinylhydrazone], the MIC was less than 1 µg/mL. Turning to `C(=NNc1ccccn1)c1ccc(OCc2ccccc2)cn1` [PH22-49, 5-benzyloxypyridine-2-aldehyde-2'-pyridylhydrazone], the MIC was found to be 1 µg/mL (≈ 3.29 µM).

As for `Cc1cccc(NN=Cc2ccccn2)n1` [PH22-31, pyridine-2-aldehyde-6'-methyl-2'-pyridylhydrazone], the MIC worked out at 1 µg/mL (≈ 4.71 µM). Take `c1ccc(C(=NNc2nncc3ccccc23)c2ccccn2)cc1` [PH22-22, 2-benzoylpyridine-1'-phthalazinylhydrazone]: the MIC turned out to be 5 µg/mL (≈ 15.4 µM).

Turning to `Clc1ccc(NN=Cc2ccc(OCc3ccccc3)cn2)nn1` [PH22-51, 5-benzyloxypyridine-2-aldehyde-6'-chloro-3'-pyridazinylhydrazone], the MIC worked out at 1 µg/mL (≈ 2.94 µM).

For `C(=NNc1nncc2ccccc12)c1ccc(OCc2ccccc2)cn1` [PH22-6, 5-benzyloxypyridine-2-aldehyde-1'-phthalazinylhydrazone], the MIC is 1 µg/mL (≈ 2.81 µM). `C(=NNc1ncnc2ccccc12)c1ccc(OCc2ccccc2)cn1` [PH22-52, 5-benzyloxypyridine-2-aldehyde-4'-quinazolinylhydrazone]: the MIC came out at 1 µg/mL (≈ 2.81 µM).

With `CCc1ccc(C=NNc2cc(OC)ncn2)nc1` [PH22-33, 5-ethylpyridine-2-aldehyde-6'-methoxy-4'-pyrimidylhydrazone], the MIC was less than 0.125 µg/mL.
